Data on seven compounds can be found in patent US12552773B2, “Compound for specifically enhancing spatial coupling degree of TRPV4-KCa2.3 complex and use thereof” (Jiangnan University, priority 2020, dated 2026).

In one series the target is T1, TRPV4-KCa2.3 complex (Mus musculus, UniProt P58391+Q9EPK8).
T1 construct: endogenous in cells
In words: In vitro coupling activity test (FRET, immunostained endothelial cells). It counts as cell-based, mice. The conditions noted are these: for Fret efficiency value (average value): endothelial cells, 10 μmol/L, 24 hours, higher value = higher degree of coupling; for coupling between the TRPV4 and the KCa2.3: high-salt state, cells incubated 24 hours, compared with JNC-440. The protocol: Endothelial cells were cultured for 3-5 days, separately incubated with the compounds in Examples 1, 2, 3, 4, 5 and 6 with a concentration of 10 μmol/L for 24 hours, fixed with 4% paraformaldehyde for 30 minutes, permeabilized with PBS containing 0.2% Triton X-100 for 10 minutes and blocked with PBS containing 5% BSA for 1 hour. Then, the cells were sequentially stained with TRPV4-550 as a primary antibody, KCa2.3 as a coupled secondary antibody (Life Technologies) and DAPI (Vector Laboratories, Burlingame, CA, USA). A laser confocal microscope was used for photographing, and a Fret value was calculated.
A higher value indicated a higher degree of coupling between the two proteins.
With reference to FIG. 3, the compound obtained in Example 1 was abbreviated as compound 365; the compound obtained in Example 2 was abbreviated as compound 366; the compound obtained in Example 3 was abbreviated as compound 491; the compound obtained in Example 4 was abbreviated as compound 437; the compound obtained in Example 5 was abbreviated as compound 455; and the compound obtained in Example 6 was abbreviated as compound 469. HS referred to hypertensive mice induced by a high-salt diet, and WT referred to normal wild-type mice.

Series [1] is described as follows: In vitro metabolism in liver microsomes, rat. Format: in vitro ADME. The protocol:
(§1) An in vitro metabolic incubation system with a total volume of 207 μL and an organic solvent less than 1% included 188 μL of a 0.1 mol/L PBS buffer (pH 7.4) and 12 μL of an NADPH generation system (prepared by mixing 10 μL of a solution A and 2 μL of a solution B on an ice bath before use). 2 μL of the compounds in Examples 4 and 5 with a concentration of 20 μm/L were added into the incubation system on an ice bath for pre-incubation in a water bath at 37° C. for 5 minutes. Then, 5 μL of liver microsomal enzymes of different species were added on an ice bath for uniform mixing and incubation in a water bath at 37° C. 400 μl of glacial acetonitrile (containing 50 ng/ml of an internal standard (caffeine)) was separately added at 0 minute, 10 minutes, 30 minutes, 60 minutes, 90 minutes, 120 minutes, 180 minutes, 360 minutes and 480 minutes to stop a reaction, and a parallel experiment was carried out 3 times. A rotation speed was 13,000 rpm/15 min. A supernatant was taken and detected by using an ultra-high performance liquid chromatography-quadrupole time-of-flight mass spectrometer.

The nature of series [2]: In vitro metabolism in liver microsomes, dog. Format: in vitro ADME. The protocol: as §1
A general note: Liver microsomes are a subcellular fraction often used to study metabolism.

A short description of series [3]: In vitro metabolism in liver microsomes of different species (overall statement). It counts as in vitro ADME. To be noted: for metabolism differences between species: liver microsomes of different species; for half-life at 0.193 µM: mouse, rat, human, dog (Example 4), human (Example 5), liver microsomes, pH 7.4, liver microsomes, overall over the species. The protocol:
as §1

Series [4] can be described thus: In vitro metabolism in liver microsomes, human. The conditions noted are these: for In vivo inherent clearance rate: from human liver microsomes; for half-life at 0.193 µM: human, liver microsomes, pH 7.4, human liver microsomes, read-out: Half-life obtained after incubation in liver microsomes of human (converted); for microsomal CLint at 0.193 µM: pH 7.4, read-out: Inherent clearance rate in liver microsomes. Format: in vitro ADME. The protocol:
as §1

In series [5] the test system is hypertensive mice induced by a high-salt diet. In words: Effects on blood pressure of hypertensive mice in vivo (tail-cuff). To be noted: intragastric, 30 mg/kg; for Mean arterial pressure change value: maximum drop of the blood pressure. The protocol:
The blood pressure of mice was determined by using an IITC non-invasive sphygmomanometer and a tail-cuff method. At first, the mice were trained every day for at least a week with half an hour each time. During each test, a systolic blood pressure value, a diastolic blood pressure value, a mean arterial pressure value and a heart rate could be obtained. After adaption, the mice were administered intragastrically with the compounds in Examples 4 and 5 with a dosage of 30 mg/kg, and then the blood pressure of the hypertensive mice was measured within a regular time. According to results, it was shown that after the compound in Example 4 was used, the blood pressure was reduced for only 1.5 h; and after the compound in Example 5 was used, the blood pressure could be reduced for 8 h.
(§2) According to a line chart in FIG. 4, the abscissa referred to time with h as the unit; and the ordinate referred to systolic blood pressure (SBP), mean arterial pressure (MAP) and diastolic blood pressure (DBP) with mmHg as the unit. […] According to a histogram, the ordinate referred to changes of the mean arterial pressure with mmHg as the unit. […] HS referred to the hypertensive mice induced by a high-salt diet (model mice used in in vivo experiments in this example). WT referred to normal wild-type mice. A control group Ctrl referred to model mice administered intragastrically with normal saline rather than the compounds involved in this application.
as §2, with “5,” for “4,”

Series [6] concerns Mesenteric primary endothelial cells. In words: Determination of intracellular K+ (PBFI fluorescence ratio). Format: cell-based. The conditions noted are these: high-salt state, 10 μmol/L, 24 hours, versus no drug. The protocol:
Mesenteric primary endothelial cells were cultured for 3-5 days and separately incubated with the compounds in Examples 4, 5 and 6 with a concentration of 10 μmol/L for 24 hours. A culture medium was removed. The cells and NPSS containing PBFI were incubated in an incubator at a ratio of 1:200 at 37° C. in a dark environment.
An Olympus fluorescence imaging system was used for measuring fluorescence with dual excitation at 340 nm and 380 nm. Changes of [K^+] were calculated as changes of a PBFI ratio.

Series [7] is described as follows: In vitro metabolism in liver microsomes, mouse. It counts as in vitro ADME. To be noted: for In vivo inherent clearance rate: from mouse liver microsomes; for half-life at 0.193 µM: mouse, liver microsomes, pH 7.4, mouse liver microsomes; for microsomal CLint at 0.193 µM: pH 7.4, read-out: Inherent clearance rate in liver microsomes. The protocol:
as §1

T1 sequence (Q9EPK8 whole entry): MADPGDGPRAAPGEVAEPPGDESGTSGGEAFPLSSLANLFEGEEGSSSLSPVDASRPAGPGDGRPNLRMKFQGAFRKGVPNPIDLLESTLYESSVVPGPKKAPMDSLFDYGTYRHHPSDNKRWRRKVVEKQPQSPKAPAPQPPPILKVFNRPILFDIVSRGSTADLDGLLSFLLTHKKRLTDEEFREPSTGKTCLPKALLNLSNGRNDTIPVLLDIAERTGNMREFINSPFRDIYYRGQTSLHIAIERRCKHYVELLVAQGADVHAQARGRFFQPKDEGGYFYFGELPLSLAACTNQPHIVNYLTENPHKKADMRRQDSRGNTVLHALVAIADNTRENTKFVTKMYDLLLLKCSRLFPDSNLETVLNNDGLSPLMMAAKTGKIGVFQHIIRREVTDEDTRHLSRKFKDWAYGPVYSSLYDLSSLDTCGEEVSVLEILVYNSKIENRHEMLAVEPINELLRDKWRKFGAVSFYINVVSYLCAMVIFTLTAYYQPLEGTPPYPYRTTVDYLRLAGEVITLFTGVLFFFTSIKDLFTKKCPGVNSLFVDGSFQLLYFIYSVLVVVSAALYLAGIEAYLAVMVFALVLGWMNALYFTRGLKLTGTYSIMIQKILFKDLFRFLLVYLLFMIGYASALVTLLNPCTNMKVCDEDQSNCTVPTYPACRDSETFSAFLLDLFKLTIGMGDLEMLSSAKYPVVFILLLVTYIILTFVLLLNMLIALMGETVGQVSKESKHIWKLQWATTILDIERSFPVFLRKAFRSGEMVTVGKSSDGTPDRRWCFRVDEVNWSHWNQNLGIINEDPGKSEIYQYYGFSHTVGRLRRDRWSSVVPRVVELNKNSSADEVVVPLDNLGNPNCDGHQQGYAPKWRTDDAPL
T1 sequence (P58391 whole entry): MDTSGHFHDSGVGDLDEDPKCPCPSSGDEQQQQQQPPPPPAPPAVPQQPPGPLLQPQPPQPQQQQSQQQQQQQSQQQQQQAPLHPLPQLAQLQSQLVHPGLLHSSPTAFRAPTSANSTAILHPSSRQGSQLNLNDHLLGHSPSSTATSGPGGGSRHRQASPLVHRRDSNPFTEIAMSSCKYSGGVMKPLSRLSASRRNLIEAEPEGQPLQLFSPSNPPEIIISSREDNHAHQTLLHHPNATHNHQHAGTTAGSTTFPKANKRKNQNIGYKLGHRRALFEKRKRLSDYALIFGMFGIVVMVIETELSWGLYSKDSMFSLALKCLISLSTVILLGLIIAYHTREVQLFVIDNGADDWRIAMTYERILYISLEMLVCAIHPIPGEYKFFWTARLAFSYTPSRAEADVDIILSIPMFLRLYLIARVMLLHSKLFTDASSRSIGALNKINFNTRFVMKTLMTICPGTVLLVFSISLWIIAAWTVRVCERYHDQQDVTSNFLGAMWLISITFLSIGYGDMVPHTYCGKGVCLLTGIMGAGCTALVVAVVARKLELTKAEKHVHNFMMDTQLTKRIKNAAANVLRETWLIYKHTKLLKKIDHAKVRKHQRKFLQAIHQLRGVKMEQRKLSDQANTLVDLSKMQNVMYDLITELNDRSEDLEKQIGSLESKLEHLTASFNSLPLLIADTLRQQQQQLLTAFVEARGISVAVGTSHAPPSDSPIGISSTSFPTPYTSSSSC

As for `O=C(Cc1ccncc1)NCCCNC(=O)c1nc(=O)c2ccccc2[nH]1` [Example 1, 4-oxo-N-(3-(2-(pyridin-4-yl)acetamido)propyl)-1,4-dihydroquinazoline-2-carboxamide], at TRPV4-KCa2.3 complex, the “Fret efficiency value (average value)” value is on record as 6.06; the “coupling between the TRPV4 and the KCa2.3” value was “enhanced”.
As for `O=C(NCCCNC(=O)c1nc(=O)c2ccccc2[nH]1)Nc1ccncc1` [Example 2, 4-oxo-N-(3-(3-(pyridin-4-yl)ureido)propyl)-1,4-dihydroquinazoline-2-carboxamide], on TRPV4-KCa2.3 complex, the “Fret efficiency value (average value)” value was 5.98; the “coupling between the TRPV4 and the KCa2.3” value was “enhanced”.
As for `CCN1CCN(Cc2ccc(NC(=O)NCCCNC(=O)c3nc(=O)c4ccccc4[nH]3)cc2)CC1` [Example 3], at TRPV4-KCa2.3 complex, the “Fret efficiency value (average value)” value is listed as 5.62; the “coupling between the TRPV4 and the KCa2.3” value is on record as “enhanced”.
By half-life is commonly meant the time in which the quantity being followed falls by half. Turning to `CCN1CCN(Cc2ccc(NC(=O)NCCCCC(=O)Nc3ccccc3)cc2)CC1` [Example 4, 5-(3-(4-((4-ethylpiperazin-1-yl)methyl)phenyl)ureido)-N-phenylpentaneamide], the “In vivo inherent clearance rate” value in series [1] (from rat liver microsomes) amounted to 15.07 ml · ^1min · kg^−1; in series [2] (from dog liver microsomes), 15.91 ml · ^1min · kg^−1; in series [4], 9.43 ml · ^1min · kg^−1; in series [7], 40.21 ml · ^1min · kg^−1. In addition, the half-life at 0.193 µM in series [1] (pH 7.4, rat liver microsomes) was 2.85 h; in series [2] (pH 7.4, dog liver microsomes), 2.23 h; in series [3], approximately 2.5 h; in series [4] (37° C., NADPH), 2.44 h; in series [7] it was 2.34 h. For the same compound, the microsomal CLint at 0.193 µM was 8.4 µL/min/mg in series [1] (pH 7.4, rat liver microsomes, read-out: Inherent clearance rate in liver microsomes); 11 µL/min/mg in series [2] (pH 7.4, dog liver microsomes, read-out: Inherent clearance rate in liver microsomes); 9.5 µL/min/mg in series [4] (human liver microsomes); 10 µL/min/mg in series [7] (mouse liver microsomes). For the same compound, the “metabolism differences between species” value in series [3] was “no metabolism differences between species”. Also, in series [5], the “time for which the blood pressure was reduced” value stood at 1.5 h. For the same compound, in series [5], the “Mean arterial pressure change value” is 16 mmHg. Besides, in series [6], the “outflow ability of the intracellular potassium ions (changes of [K+])” value (“outflow ability … (changes of [K+])” below) is given as “significantly improved”. In addition, the “Fret efficiency value (average value)” value at TRPV4-KCa2.3 complex stood at 8.15. Moreover, at TRPV4-KCa2.3 complex, the “coupling between the TRPV4 and the KCa2.3” value was “enhanced”.
For the compound `CCN1CCN(Cc2ccc(NC(=O)NCCCCC(=O)Nc3ccc(F)cc3)cc2)CC1` [Example 5, 5-(3-(4-((4-ethylpiperazin-1-yl)methyl)phenyl)ureido)-N-(4-fluorophenyl)pentaneamide], in series [3], the “metabolism differences between species” value is recorded as “no metabolism differences between species” and the half-life at 0.193 µM is 4 ± 0.5 h. The “In vivo inherent clearance rate” value in series [4] worked out at 22.326 ml · ^1min · kg^−1. Further, the “Half-life obtained after incubation in liver microsomes of human” value in series [4] (human liver microsomes, 37° C., NADPH) stood at 4.23 h. Besides, the half-life at 0.193 µM in series [4] (37° C., NADPH) was 3.35 h. Also, the microsomal CLint at 0.193 µM in series [4] (human liver microsomes) came out at 5.7 µL/min/mg. Also, in series [5], the “time for which the blood pressure was reduced” value was determined as 8 h and the “Mean arterial pressure change value” is given as 38 mmHg. Besides, the “outflow ability … (changes of [K+])” value in series [6] was “significantly improved”. Also, in series [7], the “In vivo inherent clearance rate” value is 7.065 ml · ^1min · kg^−1 and the half-life at 0.193 µM was 4.23 h. Also, in series [7] (mouse liver microsomes), the “Half-life in liver microsomes” value came out at 3.35 h and the microsomal CLint at 0.193 µM came out at 7.1 µL/min/mg. In addition, on TRPV4-KCa2.3 complex, the “Fret efficiency value (average value)” value turned out to be 7.68; the “coupling between the TRPV4 and the KCa2.3” value was “enhanced”.
For the compound `CCN1CCN(Cc2ccc(NC(=O)NCCCCCNC(=O)c3ccc(F)cc3)cc2)CC1` [Example 6], in series [6], the “outflow ability … (changes of [K+])” value is recorded as “significantly improved”. For the same compound, on TRPV4-KCa2.3 complex, the “Fret efficiency value (average value)” value is 7.98; the “coupling between the TRPV4 and the KCa2.3” value is recorded as “enhanced”.
Regarding `O=C(NCCCNC(=O)C(c1ccccc1)c1ccccc1)c1nc(=O)c2ccccc2[nH]1` [JNC-440, reference compound], the half-life at 0.193 µM in series [4] (37° C., NADPH) was 0.813 h. The “Mean arterial pressure change value” in series [5] is recorded as 10 mmHg. Besides, the “Fret efficiency value (average value)” value at TRPV4-KCa2.3 complex is given as 5.02.
